Results as given in US20240197608A1, “ACETYL SH-HEXAPEPTIDE-5 AMIDE ACETATE FOR USE IN THE TREATMENT OF HAIR LOSS DISORDERS AND AS A HAIR CARE AGENT” (L[…], S.A., priority 2021, published 2024).

Columns and labels:
Format in all cases: cell-based
[1] = test system: Fibroblast Growth Factor-7 (FGF7) gene expression; assay: FGF7 gene expression in Human Follicle Dermal Papilla Cells (RT-qPCR); settings: HFDPC, 24 hours of incubation
Procedure: (§1) This assay determined the beneficial effect of the acetyl sh-hexapeptide-5 amide acetate in the reduction of the hair loss in an in vitro assay, using Dermal Papilla cells and analysed through gene expression analysis. In particular, this test determinate the effect of the acetyl sh-hexapeptide-5 amide acetate alone or in combination with tripeptide-10 citrulline after 24 hours of treatment of Human Follicle Dermal Papilla Cells (HFDPC), and through analysis of Fibroblast Growth Factor-7 (FGF7), Insulin-like Growth Factor-1 (IGF1), and Marker of Proliferation KI-67 (MKI67) gene expression, using Quantitative reverse transcription PCR (RT-qPCR) method.
(§2) Analytical equipment: Microscope, incubator, refrigerated centrifuge, statistical analysis software, micropipettes, pipettes, propipette, rack, quantifier Nano-Drop spectrophotometer, laminar flow hood, QuantStudio 5 (Applied Biosystem) Quantitative real-time PCR, vortex, Burker chamber, heating block, thermocycler, and consumables. […]
(§3) Methodology: Cell number and viability were determined using a Burker chamber and Trypan-Blue staining. […]
(§4) After 24 hours of incubation, the medium was removed, and cells were washed with PBS (phosphate buffered saline). […] 2 min (Ramp rate: 4.4° C./sec) 1 cycle PCR Analysis Mode: Quantification 95° C. […] All data were statistically analysed.

[2] = test system: Insulin-like Growth Factor-1 (IGF1) gene expression; assay: IGF1 gene expression in Human Follicle Dermal Papilla Cells (RT-qPCR); settings: HFDPC, 24 hours of incubation
Procedure: as §1, §2, §3, §4

[3] = test system: Marker of Proliferation KI-67 (MKI67) gene expression; assay: MKI67 gene expression in Human Follicle Dermal Papilla Cells (RT-qPCR); settings: sample at 5% in culture medium, HFDPC, 24 hours of incubation
Procedure: as §1, §2, §3, §4

“acetyl sh-hexapeptide-5 amide acetate [sample 1]” was tested, and the “Fibroblast Growth Factor-7 (FGF7) expression increase compared to the untreated control” value ([1]; sample at 1% in culture medium) was 72.3±12.5%, the “Fibroblast Growth Factor-7 (FGF7) expression increase compared to the untreated control” value ([1]; sample at 5% in culture medium) was 108.0±8.3% and the “IGF1 gene expression increase compared to the untreated control” value ([2]; sample at 1% in culture medium) was 286.3±72.0%. The “IGF1 gene expression increase compared to the untreated control” value ([2]; sample at 5% in culture medium) was 300.2±45.0% and the “MK167 gene expression increase compared to the untreated control” value [3] was 100.4±25.2%.
